Laboratory results: patent publication US4738979A, “α2 -blocking derivatives of imidazole” (G. D. Searle & Co., priority 1985, dated 1988)

molecular target: T1, α2 -adrenergic receptors (Cavia porcellus, UniProt Q60474); assay: α2 antagonist and α2 agonist activity in isolated guinea pig ileum (clonidine); details: 50% of maximum inhibition obtained with clonidine, read-out: α2 Agonist Activity (-log ED50) (converted)
T1 construct: from tissue; host or cells: isolated guinea pig ileum
T1 sequence (Q60474 1-464): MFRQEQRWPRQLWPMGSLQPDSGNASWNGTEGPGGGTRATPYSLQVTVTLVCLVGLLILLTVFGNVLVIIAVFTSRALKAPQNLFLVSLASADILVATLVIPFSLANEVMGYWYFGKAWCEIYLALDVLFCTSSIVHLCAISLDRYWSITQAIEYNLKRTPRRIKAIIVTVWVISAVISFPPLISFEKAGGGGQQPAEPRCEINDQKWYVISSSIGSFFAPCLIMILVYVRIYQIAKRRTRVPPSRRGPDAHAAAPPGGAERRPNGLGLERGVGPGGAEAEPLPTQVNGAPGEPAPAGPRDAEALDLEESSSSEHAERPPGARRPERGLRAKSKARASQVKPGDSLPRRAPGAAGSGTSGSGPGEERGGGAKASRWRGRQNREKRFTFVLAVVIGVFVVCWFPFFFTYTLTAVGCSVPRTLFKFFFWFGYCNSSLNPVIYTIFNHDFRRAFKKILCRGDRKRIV
Description: The α2 antagonist and α2 agonist activity of the compounds according to the invention was determined upon isolated organs according to a model described by G. M. Drews, Br. J. Pharmaco., 64, 293-300 (1978).
This model is based upon the principle that the stimulation of the cholinergic nervous transmissions of the guinea pig ileum causes the liberation of acetyl choline, which in turn causes contractions of the ileum.
The stimulation of the α2 -adrenergic receptors inhibits the activity of the cholinergic nerve and consequently reduces all response resulting from a timulation of the latter. Thus the contractions of the ileum induced by electric stimulation of the tissue are inhibited by clonidine, an α2 agonist, in proportion to the dose. This inhibition is specifically displaced by the α2 antagonists and not by the α1 antagonists.
The method utilized can be summarized as follows: three dose-response curves to clonidine are established at an interval of 60 minutes. Two concentrations of the product to be tested are added successively 10 minutes before the realization of the second and third clonidine curves. Next, after washing, a dose-response curve is established with the product to be tested.
The dose-response curves are calculated as a percentage of the maximum inhibition obtained for the first curve. In this system the products having an α2 antagonist activity displace the dose-response curve to clonidine. The α2 antagonist activity, expressed in pA2 value, shown in column 4, is calculated according to J. M. Van Rossum, Arch. Int. Pharmacodyn., 143, 299-300 (1963).
A reduction of the contractions induced by the tested product alone indicates an α2 agonist effect. This activity is expressed in--log ED50 (the--logarithm of the concentration of the product giving 50% of the maximum inhibition obtained with clonidine).
The higher the pA2 value, the higher the α2 antagonist activity; the higher the--log ED50 value (i.e., the pA2 agonist activity), the higher the α2 agonist activity.

SMILES | EC50 [nM]
Cc1[nH]cnc1CC(c1ccccc1)c1ccccc1 [Compound 7, 4(5)-(2,2-diphenylethyl)-5(4)-methyl imidazole] | 2000

same assay, conditions: versus clonidine, read-out: α2 Antagonist Activity (pA2) (converted)

SMILES | Kb [nM]
Cc1[nH]cnc1CC(c1ccccc1)c1ccccc1 [Compound 7, 4(5)-(2,2-diphenylethyl)-5(4)-methyl imidazole] | 50.1

tested on: not listed separately; assay: acute toxicity after oral administration to mice (LD50); details: mouse, in vivo, 15 days mortality
Description: The acute toxicity of the compounds of the present invention was studied after oral administration to mice. The products to be tested, suspended in a 1% tragacanth gum mucilage, were administered by means of an intragastric probe to groups of three male mice which had fasted since the preceding day. The doses tested are a function of the effect observed and can vary from 3,000 to 3 mg/kg or less. The mortality was recorded for 15 days. The lethal dose for 50% of the animals (LD50) was calculated according to the method of J. Litchfield and F. Wilcoxon, J. Pharmacol. Exp. Ther., 96, 99 (1949) and expressed in mg/kg. The effect of the products on the behaviour of the animals is observed until 5 to 6 hours after the treatment indicated above and after 24 hours, using a method derived from that of S. Irwin, described by R. A. Turner, Screening Methods in Pharmacology, Chapter 3, pages 22-34, Academic Press, 1965. If anomalies are noted, the observation is prolonged and smaller doses are tested.

SMILES | LD50 at 360 h [mg/kg]
Cc1ccc(C(Cc2c[nH]cn2)c2ccccc2)cc1C (centres unmarked) [Compound 22] | 155
Fc1cccc(F)c1C(Cc1c[nH]cn1)c1ccccc1 (centres unmarked) [Compound 27, 4(5)-{[2-(2-fluorophenyl)-2-(6'-fluorophenyl)]ethyl}imidazole] | 173
Fc1ccccc1C(Cc1c[nH]cn1)c1ccccc1 (centres unmarked) [Compound 28, 4(5)-{[2-(2-fluorophenyl)-2-phenyl]ethyl}imidazole] | 94

tested on: α2 adrenergic receptors of the central nervous system; assay: inhibition of the antihypertensive action of clonidine in spontaneously hypertensive rats (SHR); format: in vivo, rat; details: 1 mg/kg p.o., clonidine 50 μg/kg s.c.
Description: In the first study, carried out upon unanaesthetized spontaneously hypertensive rats (SHR rats), the ability of the compounds of the present invention to inhibit the antihypertensive action of clonidine was determined.
The antihypertensive activity of clonidine results from an interaction with α2 adrenergic receptors of the central nervous system, i.e., central antihypertensive actions.
In this test, two groups of SHR rats are utilized as follows. In the first group, prior to subcutaneous administration of clonidine (50 μg/kg), the SHR rats are treated with the compound to be tested (1 mg/kg p.o.) dissolved in a saline vehicle. The second group (control group) of SHR rats are treated with the saline vehicle only, prior to subcutaneous administration of clonidine.
The arterial pressure is measured in the region of the median coccygeal artery according to the method of J. Roba, A. F. DeSchaepdrijver, Exp. Anim., 4, 147-162 (1971).
The results of this assay summarized in Table II, column 5, are expressed as a percentage of inhibition of the effect of clonidine.

SMILES | α2 Antagonist (% Inhibition of the Antihypertension of Clonidine) [%]
Cc1[nH]cnc1CC(c1ccccc1)c1ccccc1 [Compound 7, 4(5)-(2,2-diphenylethyl)-5(4)-methyl imidazole] | 82
Cc1ccc(C(Cc2c[nH]cn2)c2ccccc2)cc1C (centres unmarked) [Compound 22] | 57

tested on: α1 -adrenergic receptors; assay: binding to α1-adrenergic receptors on rat brain homogenates (3H-WB 4101); details: 1.6 nM 3H-WB 4101
Description: (§1) The activity of the compounds according to the invention with respect to binding of the α-adrenergic receptors was determined in vitro according to a method deriving from the works of B. R. Rouot et al., Life Sci., 25, 769 (1979) and of D. U'Prichard et al., Mol. Pharmacol., 13, 454 (1977). This method consists in measuring the binding to the receptor on rat brain homogenates, by marking by means of a specific tritriated ligand placed in competition with the product to be tested.
(§2) In the presenct case the binding to the α1 -adrenergic receptors was measured by means of 1.6 nM of ^3 H-WB 4101 and the binding to the α2 -adrenergic receptors by means of 0.7 nM of ^3 H-p. aminoclonidine, the non-specific binding being determined by 1,000 nM of phentolamine. The results are given in Table II, column 3, and are expressed in terms of percentage of inhibition of the specific binding of 10^-7 molar compound concentration.
(§3) (2) The specific binding is the total binding less the nonspecific
(§4) binding. The total binding is the binding in the absence of nonradioactiv
(§5) drug. The nonspecific binding is the binding in the presence of 1,000 nM
(§6) of phentolamine. The products of the invention are tested at a
(§7) concentration of 10^-7 molar.

SMILES | % Inhibition of the Specific Binding at 10^-7 M for α1 Recep. [%]
Cc1[nH]cnc1CC(c1ccccc1)c1ccccc1 [Compound 7, 4(5)-(2,2-diphenylethyl)-5(4)-methyl imidazole] | 12
Cc1ccc(C(Cc2c[nH]cn2)c2ccccc2)cc1C (centres unmarked) [Compound 22] | 4
Fc1cccc(F)c1C(Cc1c[nH]cn1)c1ccccc1 (centres unmarked) [Compound 27, 4(5)-{[2-(2-fluorophenyl)-2-(6'-fluorophenyl)]ethyl}imidazole] | 14
Fc1ccccc1C(Cc1c[nH]cn1)c1ccccc1 (centres unmarked) [Compound 28, 4(5)-{[2-(2-fluorophenyl)-2-phenyl]ethyl}imidazole] | 8

molecular target: T2, α2 -adrenergic receptors (Rattus norvegicus, UniProt P22909); assay: binding to α2-adrenergic receptors on rat brain homogenates (3H-p. aminoclonidine); details: 10^-7 M; rat brain homogenates; 0.7 nM 3H-p. aminoclonidine; read-out: % Inhibition of the Specific Binding at 10^-7 M for α2 Recep.
T2 construct: from tissue; host or cells: rat brain homogenates
T2 sequence (P22909 1-465): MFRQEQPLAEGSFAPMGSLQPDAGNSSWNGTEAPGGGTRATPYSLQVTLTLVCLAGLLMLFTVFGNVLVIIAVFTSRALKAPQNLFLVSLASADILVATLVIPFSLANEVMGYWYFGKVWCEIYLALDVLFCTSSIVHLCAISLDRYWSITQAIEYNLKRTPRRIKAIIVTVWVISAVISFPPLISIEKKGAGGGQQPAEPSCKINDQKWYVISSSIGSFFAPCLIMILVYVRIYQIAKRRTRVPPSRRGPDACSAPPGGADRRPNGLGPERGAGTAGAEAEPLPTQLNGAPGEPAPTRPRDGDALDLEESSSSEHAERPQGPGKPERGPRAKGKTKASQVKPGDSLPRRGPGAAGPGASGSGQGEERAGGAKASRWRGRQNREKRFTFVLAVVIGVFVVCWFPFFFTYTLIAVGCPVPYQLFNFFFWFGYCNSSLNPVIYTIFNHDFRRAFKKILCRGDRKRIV
Description: as §1, §2, §3, §4, §5, §6, §7

SMILES | inhibition at 0.1 µM [%]
Cc1[nH]cnc1CC(c1ccccc1)c1ccccc1 [Compound 7, 4(5)-(2,2-diphenylethyl)-5(4)-methyl imidazole] | 23
Cc1ccc(C(Cc2c[nH]cn2)c2ccccc2)cc1C (centres unmarked) [Compound 22] | 22
Fc1cccc(F)c1C(Cc1c[nH]cn1)c1ccccc1 (centres unmarked) [Compound 27, 4(5)-{[2-(2-fluorophenyl)-2-(6'-fluorophenyl)]ethyl}imidazole] | 86
Fc1ccccc1C(Cc1c[nH]cn1)c1ccccc1 (centres unmarked) [Compound 28, 4(5)-{[2-(2-fluorophenyl)-2-phenyl]ethyl}imidazole] | 95

same assay, conditions: in vitro binding assay, 10^-7 M

SMILES | affinity for α2 receptors (in words)
Fc1cccc(F)c1C(Cc1c[nH]cn1)c1ccccc1 (centres unmarked) [Compound 27, 4(5)-{[2-(2-fluorophenyl)-2-(6'-fluorophenyl)]ethyl}imidazole] | high affinity
Fc1ccccc1C(Cc1c[nH]cn1)c1ccccc1 (centres unmarked) [Compound 28, 4(5)-{[2-(2-fluorophenyl)-2-phenyl]ethyl}imidazole] | high affinity

tested on: bicuculline-induced tonic extension in mice; assay: protection against bicuculline-induced tonic extension in mice; format: in vivo; details: Mus musculus, iv, 3 hours prior to bicuculline 0.7 mg/kg i.v., read-out: Anticonvulsive effect (versus Bicuculline) (% Protection)
Description: (§8) In the second study the anti-convulsant effect of the compounds of the present invention was examined in two seizure models; bicuculline-induced tonic extension in mice and 3-mercaptopropionic acid (3-MPA)-induced tonic extension in mice.
(§9) In the bicuculline study, the ability of the compounds of the present invention to protect against tonic extension (involving rigidity) was evaluated as follows. Each test compound was administered to a group of ten mice at a dose of 10 mg/kg, 3 hours prior to the i.v. administration of bicuculline (0.7 mg/kg). Anticonvulsant activity in this test is expressed as percentage of animals tested. The results are given in Table II, column 6, and indicate that several compounds display significant anticonvulsive activity in this test. The anticonvulsant effect of the compounds has also been tested with respect to the tonic extension induced by 3-mercaptopropionic acid (120 mg/kg subcutaneously) in mice.

SMILES | responders at 10 mg/kg [%]
Cc1[nH]cnc1CC(c1ccccc1)c1ccccc1 [Compound 7, 4(5)-(2,2-diphenylethyl)-5(4)-methyl imidazole] | 20
Cc1ccc(C(Cc2c[nH]cn2)c2ccccc2)cc1C (centres unmarked) [Compound 22] | 20

tested on: peripheral vascular α2 receptors; assay: inhibition of the pressor effect of BHT 920 in pithed rats; format: in vivo, rat; details: 1 mg/kg i.v., BHT 920 30 μg/kg i.v.
Description: The α2 antagonist activity of the compounds is evaluated by the inhibition of the pressor effect (blood pressure elevation), of a specific α2 agonist agent, 4H-Thiazolo[4,5-b]azetin-2-amine, 5,6,7,8-tetrahydro-6-(2-propenyl)-, dihydrochloride, designated as BHT 920 at a concentration of 30 μg/kg i.v.) according to a method described by J. C. Van Meel et al., J. Pharmacol. Exp. Ther., 219, 760-767 (1981).
The compound to be tested is administered at 1 mg/kg i.v. The ability of the compounds tested to antagonize the pressor effects of BHT 920 is determined and expressed as percentage of inhibition. Any direct hypertensive (=α2 agonist) activity of the compounds under test can likewise be detected.

SMILES | α2 antagonist activity, inhibition of pressor effect of BHT 920 (in words)
Cc1[nH]cnc1CC(c1ccccc1)c1ccccc1 [Compound 7, 4(5)-(2,2-diphenylethyl)-5(4)-methyl imidazole] | very active as α2 antagonist agents
Cc1ccc(C(Cc2c[nH]cn2)c2ccccc2)cc1C (centres unmarked) [Compound 22] | very active as α2 antagonist agents

tested on: 3-mercaptopropionic acid (3-MPA)-induced tonic extension in mice; assay: protection against 3-mercaptopropionic acid (3-MPA)-induced tonic extension in mice; format: in vivo; details: 100 mg/kg orally, 30 minutes prior to 3-MPA (120 mg/kg s.c.)
Description: as §8, §9
In the 3-MPA assay, the compounds of the present invention are administered orally at a dose of 100 mg/kg 30 minutes prior to administration of 3-MPA. Each compound was tested on a group of 5 mice; if more than 1 mouse was protected, a second group of 5 mice was tested.

SMILES | anticonvulsant effect versus 3-MPA (in words)
Fc1cccc(F)c1C(Cc1c[nH]cn1)c1ccccc1 (centres unmarked) [Compound 27, 4(5)-{[2-(2-fluorophenyl)-2-(6'-fluorophenyl)]ethyl}imidazole] | potent anticonvulsant effect
Fc1ccccc1C(Cc1c[nH]cn1)c1ccccc1 (centres unmarked) [Compound 28, 4(5)-{[2-(2-fluorophenyl)-2-phenyl]ethyl}imidazole] | potent anticonvulsant effect
